{"source": "paper PMC9573696", "about": "“Experimental Examination of Solubility and Lipophilicity as Pharmaceutically Relevant Points of Novel Bioactive Hybrid Compounds” (Molecules, 2022)", "key": {"[1]": {"test": "Equilibrium (thermodynamic) solubility, shake-flask method", "format": "physicochemical", "details": "for Solubility S × 10^3 / Solubility x × 10^3 / Solubility x × 10^5 / Solubility S × 10^4 / Solubility x × 10^6: amorphous state; for Solubility S × 10^4 / Solubility x × 10^6: Buffer pH 7.4", "from_the_text": "The experimental solubility values of hybrids in the selected solvents within the temperature range of 293.15–313.15 K expressed in molarity are summarized in Table 2. The comparative analysis of the reference values of the solubility of compounds I–III at the standard temperature of 298.15 K is given as a histogram in Figure 3.\nShake-flask method as “gold standard” was used for determination thermodynamic solubility synthesized compounds in buffer solutions (pH 2.0 and 7.4) and 1-octanol in the temperature range of 293.15–313.15 K with a step of 5 degrees at atmospheric pressure. Excessive amounts of compound were added to glass vials c 12 mL of selected solvent. The heterogeneous system is closed with a lid and vigorously stirred at the selected temperature in an air thermostat with a stirring device until the solubility equilibrium has been reached. The time required for establishing a constant value of the solution concentration was determined from the solubility kinetic dependences and averaged 2 days. The equilibrated solutions were first survived to aim sedimentation of solid phase during 10 h, then centrifuged at 20,000 rpm for 30 min at specific temperatures, and then quickly filtered using a syringe equipped with a hydrophilic filter Millex-GV 0.22 µm (Ireland). Concentration of saturated solution was measured using spectrophotometer Cary-50 (Varian, USA) with an accuracy of 2–4%. The absorbances of compounds studied were measured at wavelengths 332 and 334 nm in buffer solutions and 1-octanol, respectively. If necessary, an aliquot was diluted with an appropriate solvent. The final pH of the saturated buffers was monitored. The solubility of compounds in each solvent was determined by repeating the procedure three times.\nMole fraction concentration was calculated from solubility value S expressed in mol∙L^−1 using Equation (10):(10) x=M2S/S(M2−M1)+1000ρ, where M1 and M2 are the molar masses of solute and solvent, respectively, and ρ (g∙cm^−3) is the density of the pure solvents. The mole fraction solubilities for buffer solutions were calculated taking into account the buffer compositions. The used values of densities are given in Table S6 in Supplementary Material."}, "[2]": {"test": "Partition in system 1-octanol/buffer pH 7.4, shake-flask method", "format": "physicochemical", "details": "for logP at 2 days / logD at 2 days: pH 7.4, 1-octanol/buffer pH 7.4; for logP at 2 days: from concentrations in mole fraction", "procedure": "The partition coefficients of the new hybrid compounds in the model system 1-octanol/buffer pH 7.4 as a lipophilicity surrogate were determined experimentally. […] It is the lipophilic properties that allow the hybrids to move from the water phase to the less hydrophilic octanol phase, where the solute–solvent intermolecular interactions are more favourable. According to the results shown in Table 5, the order of changes in the partition coefficients logPo/b at T = 298.15 K, depending on the substituent nature, is expressed as the inequality: Cl- (1.65) < F- (2.40) < CH3- (2.50). Compounds I and II are the most lipophilic in the series of the studied substances, whereas the introduction of a chlorine atom considerably lowers the partition coefficient (~0.8 log units). This fact agrees with the common concept that lipophilic groups are usually hydrocarbon or fluorine-containing radicals. […] For drugs with such partition coefficients, there is a good balance between the solubility and permeability through passive diffusion and minimum metabolism due to the low binding capacity with enzymes.\nThe octanol/buffer pH 7.4 partition coefficient logPO/B is measured in a static mode using the shake-flask method. The procedure has been presented as standard in the Organization for Economic Cooperation and Development (OECD) guidelines for testing chemicals. The equipment described above was also used for the determination of the 1-octanol/water partition coefficients. […] The correctness of the obtained value of each compound was verified by checking the mass balance of the starting amount of the compound and the total amount of the compound partitioned between the two phases.\nTo aim evaluated transfer (partition) thermodynamic functions, the 1-octanol/buffer partition coefficients P^* o/b as the ratio of equilibrium concentrations in the organic (xo) and aqueous phases (xb) expressed in mole fractions were calculated: P* o/b = xo/xb(12)"}, "[3]": {"details": "1-octanol/buffer pH 7.4, 293.15 K"}, "[4]": {"details": "1-octanol/buffer pH 7.4, 298.15 K"}, "[5]": {"details": "1-octanol/buffer pH 7.4, 303.15 K"}, "[6]": {"details": "1-octanol/buffer pH 7.4, 308.15 K"}, "[7]": {"details": "1-octanol/buffer pH 7.4, 313.15 K"}}}
{"smiles": "Cc1ccc(-n2c(=S)sc3c(=O)n(CCCN4CCN(CC(O)(Cn5cncn5)c5ccc(F)cc5F)CC4)cnc32)cc1", "note": "(stereo not shown) [I, 6-[3-[4-[2-(2,4-difluorophenyl)-2-hydroxy-3-(1H-1,2,4-triazol-1-yl)propyl]-1-piperazinyl]propyl]-2,3-dihydro-3-(4-methylphenyl)-2-thioxo-thiazolo[4,5-d]pyrimidin-7(6H)-one]", "values": [{"measurement": "Solubility S × 10^3", "setting": "[1]; 1-Octanol, 293.15 K", "value": "7.0781 mol∙L^−1 (printed as S × 10^3)"}, {"measurement": "Solubility x × 10^3", "setting": "[1]; 1-Octanol, 293.15 K", "value": "1.1199 mol. frac. (printed as x × 10^"}, {"measurement": "Solubility S × 10^3", "setting": "[1]; 1-Octanol, 298.15 K", "value": "7.5389 mol∙L^−1 (printed as S × 10^3)"}, {"measurement": "Solubility x × 10^3", "setting": "[1]; 1-Octanol, 298.15 K", "value": "1.1981 mol. frac. (printed as x × 10^"}, {"measurement": "Solubility S × 10^3", "setting": "[1]; 1-Octanol, 303.15 K", "value": "8.0826 mol∙L^−1 (printed as S × 10^3)"}, {"measurement": "Solubility x × 10^3", "setting": "[1]; 1-Octanol, 303.15 K", "value": "1.2903 mol. frac. (printed as x × 10^"}, {"measurement": "Solubility S × 10^3", "setting": "[1]; 1-Octanol, 308.15 K", "value": "8.6264 mol∙L^−1 (printed as S × 10^3)"}, {"measurement": "Solubility x × 10^3", "setting": "[1]; 1-Octanol, 308.15 K", "value": "1.3835 mol. frac. (printed as x × 10^"}, {"measurement": "Solubility S × 10^3", "setting": "[1]; 1-Octanol, 313.15 K", "value": "9.2070 mol∙L^−1 (printed as S × 10^3)"}, {"measurement": "Solubility x × 10^3", "setting": "[1]; 1-Octanol, 313.15 K", "value": "1.4834 mol. frac. (printed as x × 10^"}, {"measurement": "solubility at 2 days", "setting": "[1]; 25 °C, organic solvent or mixture, thermodynamic from solid, 1-octanol, text values match 298.15 K, read-out: Solubility S in the alcohol (1-octanol)", "value": 7.54, "unit": "mM"}, {"measurement": "Solubility S × 10^3", "setting": "[1]; Buffer pH 2.0, 293.15 K", "value": "1.8307 mol∙L^−1 (printed as S × 10^3)"}, {"measurement": "Solubility x × 10^5", "setting": "[1]; Buffer pH 2.0, 293.15 K", "value": "3.3040 mol. frac. (printed as x × 10^"}, {"measurement": "Solubility S × 10^3", "setting": "[1]; Buffer pH 2.0, 298.15 K", "value": "1.9773 mol∙L^−1 (printed as S × 10^3)"}, {"measurement": "Solubility x × 10^5", "setting": "[1]; Buffer pH 2.0, 298.15 K", "value": "3.5732 mol. frac. (printed as x × 10^"}, {"measurement": "Solubility S × 10^3", "setting": "[1]; Buffer pH 2.0, 303.15 K", "value": "2.1311 mol∙L^−1 (printed as S × 10^3)"}, {"measurement": "Solubility x × 10^5", "setting": "[1]; Buffer pH 2.0, 303.15 K", "value": "3.8570 mol. frac. (printed as x × 10^"}, {"measurement": "Solubility S × 10^3", "setting": "[1]; Buffer pH 2.0, 308.15 K", "value": "2.3027 mol∙L^−1 (printed as S × 10^3)"}, {"measurement": "Solubility x × 10^5", "setting": "[1]; Buffer pH 2.0, 308.15 K", "value": "4.1749 mol. frac. (printed as x × 10^"}, {"measurement": "Solubility S × 10^3", "setting": "[1]; Buffer pH 2.0, 313.15 K", "value": "2.4851 mol∙L^−1 (printed as S × 10^3)"}, {"measurement": "Solubility x × 10^5", "setting": "[1]; Buffer pH 2.0, 313.15 K", "value": "4.5144 mol. frac. (printed as x × 10^"}, {"measurement": "Solubility S × 10^4", "setting": "[1]; 293.15 K", "value": "1.1295 mol∙L^−1 (printed as S × 10^4)"}, {"measurement": "Solubility x × 10^6", "setting": "[1]; 293.15 K", "value": "2.0541 mol. frac. (printed as x × 10^"}, {"measurement": "Solubility S × 10^4", "setting": "[1]; 298.15 K", "value": "1.2441 mol∙L^−1 (printed as S × 10^4)"}, {"measurement": "Solubility x × 10^6", "setting": "[1]; 298.15 K", "value": "2.2653 mol. frac. (printed as x × 10^"}, {"measurement": "Solubility S × 10^4", "setting": "[1]; 303.15 K", "value": "1.3510 mol∙L^−1 (printed as S × 10^4)"}, {"measurement": "Solubility x × 10^6", "setting": "[1]; 303.15 K", "value": "2.4636 mol. frac. (printed as x × 10^"}, {"measurement": "Solubility S × 10^4", "setting": "[1]; 308.15 K", "value": "1.4682 mol∙L^−1 (printed as S × 10^4)"}, {"measurement": "Solubility x × 10^6", "setting": "[1]; 308.15 K", "value": "2.6820 mol. frac. (printed as x × 10^"}, {"measurement": "Solubility S × 10^4", "setting": "[1]; 313.15 K", "value": "1.5920 mol∙L^−1 (printed as S × 10^4)"}, {"measurement": "Solubility x × 10^6", "setting": "[1]; 313.15 K", "value": "2.9135 mol. frac. (printed as x × 10^"}, {"measurement": "sb × 10^6 (concentration in buffer)", "setting": "[2]; [3]", "value": "10.2 mol∙L^−1 (printed as sb × 10^6"}, {"measurement": "so × 10^3 (concentration in 1-octanol)", "setting": "[2]; [3]", "value": "2.88 mol∙L^−1 (printed as so × 10^3"}, {"measurement": "xb × 10^7 (mole fraction in buffer)", "setting": "[2]; [3]", "value": "1.82 mole fraction (printed as xb ×"}, {"measurement": "xo × 10^4 (mole fraction in 1-octanol)", "setting": "[2]; [3]", "value": "4.54 mole fraction (printed as xo ×"}, {"measurement": "sb × 10^6 (concentration in buffer)", "setting": "[2]; [4]", "value": "9.11 mol∙L^−1 (printed as sb × 10^6"}, {"measurement": "so × 10^3 (concentration in 1-octanol)", "setting": "[2]; [4]", "value": "2.88 mol∙L^−1 (printed as so × 10^3"}, {"measurement": "xb × 10^7 (mole fraction in buffer)", "setting": "[2]; [4]", "value": "1.63 mole fraction (printed as xb ×"}, {"measurement": "xo × 10^4 (mole fraction in 1-octanol)", "setting": "[2]; [4]", "value": "4.57 mole fraction (printed as xo ×"}, {"measurement": "sb × 10^6 (concentration in buffer)", "setting": "[2]; [5]", "value": "7.95 mol∙L^−1 (printed as sb × 10^6"}, {"measurement": "so × 10^3 (concentration in 1-octanol)", "setting": "[2]; [5]", "value": "2.88 mol∙L^−1 (printed as so × 10^3"}, {"measurement": "xb × 10^7 (mole fraction in buffer)", "setting": "[2]; [5]", "value": "1.43 mole fraction (printed as xb ×"}, {"measurement": "xo × 10^4 (mole fraction in 1-octanol)", "setting": "[2]; [5]", "value": "4.59 mole fraction (printed as xo ×"}, {"measurement": "sb × 10^6 (concentration in buffer)", "setting": "[2]; [6]", "value": "7.16 mol∙L^−1 (printed as sb × 10^6"}, {"measurement": "so × 10^3 (concentration in 1-octanol)", "setting": "[2]; [6]", "value": "2.88 mol∙L^−1 (printed as so × 10^3"}, {"measurement": "xb × 10^7 (mole fraction in buffer)", "setting": "[2]; [6]", "value": "1.29 mole fraction (printed as xb ×"}, {"measurement": "xo × 10^4 (mole fraction in 1-octanol)", "setting": "[2]; [6]", "value": "4.61 mole fraction (printed as xo ×"}, {"measurement": "logPo/b", "setting": "[2]; 1-octanol/buffer pH 7.4, 308.15 K, from concentrations in mol∙L^−1", "value": 2.60}, {"measurement": "sb × 10^6 (concentration in buffer)", "setting": "[2]; [7]", "value": "6.38 mol∙L^−1 (printed as sb × 10^6"}, {"measurement": "so × 10^3 (concentration in 1-octanol)", "setting": "[2]; [7]", "value": "2.88 mol∙L^−1 (printed as so × 10^3"}, {"measurement": "xb × 10^7 (mole fraction in buffer)", "setting": "[2]; [7]", "value": "1.15 mole fraction (printed as xb ×"}, {"measurement": "xo × 10^4 (mole fraction in 1-octanol)", "setting": "[2]; [7]", "value": "4.63 mole fraction (printed as xo ×"}, {"measurement": "logP at 2 days", "setting": "[2]; 293.15 K", "value": 3.39}, {"measurement": "logD at 2 days", "setting": "[2]; 293.15 K, from concentrations in mol∙L^−1", "value": 2.45}, {"measurement": "logP at 2 days", "setting": "[2]; 298.15 K", "value": 3.44}, {"measurement": "logD at 2 days", "setting": "[2]; 298.15 K, from concentrations in mol∙L^−1", "value": 2.5}, {"measurement": "logP at 2 days", "setting": "[2]; 303.15 K", "value": 3.5}, {"measurement": "logD at 2 days", "setting": "[2]; 303.15 K, from concentrations in mol∙L^−1", "value": 2.56}, {"measurement": "logP at 2 days", "setting": "[2]; 308.15 K", "value": 3.55}, {"measurement": "logP at 2 days", "setting": "[2]; 313.15 K", "value": 3.6}, {"measurement": "logD at 2 days", "setting": "[2]; 313.15 K, from concentrations in mol∙L^−1", "value": 2.65}]}
